This passage reports IC50 results from patent publication US20240307415A1, “STEROID COMPOUND, AND PHARMACEUTICAL COMPOSITION THEREOF AND USE THEREOF” (JIANGSU SIMCERE PHARMACEUTICAL CO., LTD., priority 2021, published 2024).

SMILES strings stand for the structures. Some results are limits rather than exact numbers.

The test deals with hERG potassium channel (Homo sapiens (Human), UniProt Q12809). In words: hERG inhibitory activity, manual patch clamp. The format is cell-based. Particulars: HEK293 cells stably expressing hERG. Here is the method:
The inhibition of hERG activity by the compound of the present invention was determined using the following method.
HEK293 cells (Cat. No: K1236) stably expressing hERG ion channel were purchased from Invitrogen. The cells were cultured in a culture medium containing 85% DMEM, 10% dialyzed fetal bovine serum, 0.1 mM non-essential amino acid solution, 100 U/mL penicillin-streptomycin solution, 25 mM HEPES, 5 μg/mL blasticidin, and 400 μg/mL geneticin. When the cell density increased to 40-80% of the bottom area of the culture dish, the cells were digested with trypsin and subcultured thrice every week. Before the experiment, the cells were cultured at a density of 5×10^5 in 6-cm culture dishes, induced for 48 h with 1 μg/mL doxycycline, and then digested and inoculated on a slide for the subsequent manual patch-clamp experiment. […]
• 1) The slides carrying HEK293 cells in the culture dish were placed in the perfusion chamber of the micromanipulation stage. • 2) Appropriate cells were placed in the center of the field of view under an Olympus IX51, IX71, or IX73 inverted microscope. […] The peak value of the tail current was the magnitude of the hERG current. • 9) The hERG current used to detect the test compound was recorded continuously for 120 seconds prior to dosing to assess the stability of hERG current production by the test cells. […]

Chain of hERG potassium channel (Q12809 whole entry): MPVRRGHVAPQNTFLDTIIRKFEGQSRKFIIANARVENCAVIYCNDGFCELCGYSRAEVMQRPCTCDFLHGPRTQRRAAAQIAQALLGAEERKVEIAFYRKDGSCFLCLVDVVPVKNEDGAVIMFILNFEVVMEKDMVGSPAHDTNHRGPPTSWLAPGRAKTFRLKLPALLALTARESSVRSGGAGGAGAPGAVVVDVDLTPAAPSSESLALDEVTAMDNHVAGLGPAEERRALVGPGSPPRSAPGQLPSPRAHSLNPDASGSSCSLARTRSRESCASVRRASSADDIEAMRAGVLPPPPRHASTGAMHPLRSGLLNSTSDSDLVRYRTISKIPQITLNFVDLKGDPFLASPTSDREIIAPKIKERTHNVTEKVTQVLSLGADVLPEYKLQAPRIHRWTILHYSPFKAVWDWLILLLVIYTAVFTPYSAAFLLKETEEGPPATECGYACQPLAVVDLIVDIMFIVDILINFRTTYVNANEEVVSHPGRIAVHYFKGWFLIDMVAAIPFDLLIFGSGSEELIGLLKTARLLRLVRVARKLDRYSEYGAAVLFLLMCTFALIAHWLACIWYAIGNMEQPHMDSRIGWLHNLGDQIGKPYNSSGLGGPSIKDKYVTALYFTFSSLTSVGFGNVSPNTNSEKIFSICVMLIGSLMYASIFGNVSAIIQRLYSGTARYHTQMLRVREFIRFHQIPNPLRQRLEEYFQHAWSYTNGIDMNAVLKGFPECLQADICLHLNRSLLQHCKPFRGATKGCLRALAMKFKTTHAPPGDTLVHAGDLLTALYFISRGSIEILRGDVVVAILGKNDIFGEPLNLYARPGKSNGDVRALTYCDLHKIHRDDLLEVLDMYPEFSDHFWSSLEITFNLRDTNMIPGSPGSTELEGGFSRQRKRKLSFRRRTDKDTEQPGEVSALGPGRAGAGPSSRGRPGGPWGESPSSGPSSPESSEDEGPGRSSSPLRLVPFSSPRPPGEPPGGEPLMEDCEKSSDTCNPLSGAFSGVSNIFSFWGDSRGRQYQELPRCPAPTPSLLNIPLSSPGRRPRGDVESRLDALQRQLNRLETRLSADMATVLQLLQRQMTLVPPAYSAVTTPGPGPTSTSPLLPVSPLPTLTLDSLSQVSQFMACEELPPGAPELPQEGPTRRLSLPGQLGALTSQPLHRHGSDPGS

Take `C[C@]12C=CC(=O)C=C1CC[C@@H]1[C@@H]2[C@@H](O)C[C@@]2(C)[C@H]1C[C@H]1O[C@@H](c3ccc(Cc4cc(N)c5c(c4)CCO5)cc3)O[C@]12C(=O)CO` [Compound 009, (6aR,6bS,7S,8aS,8bS,10R,11aR,12aS,12bS)-10-(4-((7-amino-2,3-dihydrobenzofuran-5-yl)methyl)phenyl)-7-hydroxy-8b-(2-hydroxyacetyl)-6a,8a-dimethyl-6a,6b,7,8,8a,8b,11a,12,12a,12b-decahydro-1H-naphtho[2′,1′:4,5]indeno[1,2-d][1,3]dioxolan-4(2H)-one]: the IC50 was > 30 µM.
